The values below come from US20100247551A1, “Use of Lipocalin 2 in the Regulation of Insulin Sensitivity” (priority 2006, published 2010).

Experiment [1] deals with Lcn2 expression in 3T3-L1 adipocytes. Briefly: Lcn2 mRNA expression in mature 3T3-L1 adipocytes (Q-PCR). The conditions noted are these: Dex 1 μM or TNF 4 ng/μL (FIG. 1). The class given is cell-based, mouse. The procedure:
Mature 3T3-L1 adipocytes were treated with Dex (1 μM) or TNF (4 ng/μL) in the presence or absence of rosiglitazone (Rosi; 1 μM), and Lcn2 mRNA levels were measured by Q-PCR. Data presented as mean±SD, *p<0.05, ***p=0.005 relative to no Rosi.

For the next experiment, the system named is H4IIe hepatocytes. Briefly: Insulin resistance in H4IIe hepatocytes (glucose production, glucose-6-phosphatase mRNA expression). As to conditions: liganded Lcn2 10 nM, with or without insulin 100 nM (FIG. 6). The class given is cell-based. The procedure: FIG. 6A: Left, Glucose production induced by liganded Lcn2 (10 nM) or Dex (250 nM) in the presence or absence of insulin (100 nM). Right, effect of liganded Lcn2 (10 nM) or Dex (250 nM) on glucose-6-phosphatase mRNA expression in the presence or absence of insulin (100 nM). FIG. 6B: Dose response of liganded Lcn2 on glucose-6-phosphatase expression. FIG. 6C: Effect of apo-Lcn2 on glucose-6-phosphatase expression. For all panels, mean±SD, p<0.05, **p<0.01, n=3.

As to TNF-α, in experiment [1], the Lcn2 expression entry is “dramatically induced”.

B1: recombinant Lcn2: exogenous recombinant lipocalin 2 protein (protein, UniProt P80188 21-198, looked up)
Neutrophil …: QDSTSDLIPAPPLSKVPLQQNFQDNQFQGKWYVVGLAGNAILREDKDPQKMYATIYELKEDKSYNVTSVLFRKKKCDYWIRTFVPGCQPGEFTLGNIKSYPGLTSYLVRVVSTNYNQHAMVFFKKVSQNREYFKITLYGRTKELTSELKENFIRFSKSLGLPENHIVFPVPIDQCIDG
As for B1, in the experiment on H4IIe hepatocytes, the “insulin resistance (glucose production, glucose-6-phosphatase expression)” value is “induces insulin resistance”.
